Source: patent publication US9428439B2, “Hydrobenzamide derivatives as inhibitors of Hsp90” (priority 2006, dated 2016)
“Also recorded” adds a separate entry of the source. Like-named read-outs stand apart in the source and are kept apart here.

Test: Solid-state stability of crystalline forms (XRPD)
Format: physicochemical
Conditions: for stability in air: XRPD
Excerpt: Samples for X-ray powder diffraction (XRPD) data collection were gently ground by marble mortar and loaded into a crystallographic capillary (from Hampton Research, Quartz or Glass Type 10, 0.4 or 0.7 mm diameter). Diffraction patterns were collected at room temperature using CuKα radiation (λ=1.5418 Å) from a Rigaku rotating anode RU3HR, Osmic blue confocal optics, ¼ c goniometer and a Rigaku HTC image plate detector. 2D Images were collected while spinning φ axis with a detector to crystal distance of 250 mm. Data collection was controlled by CrystalClear software and 2D images were converted to 1D plot (2θ vs. Intensity) by Datasqueeze (intensity averaged over the azimuthal angle 0≦χ≦360° for […] 3-30° in 0.02° steps). In house program AstexXRPD was used for manipulation and visualisation of 1D XRPD patterns.

Structure (SMILES): CC(C)c1cc(C(=O)N2Cc3ccc(CN4CCN(C)CC4)cc3C2)c(O)cc1O [Form FB1, (2,4-dihydroxy-5-isopropyl-phenyl)-[5-(4-methyl-piperazin-1-ylmethyl)-1,3-dihydro-isoindol-2-yl]-methanone]
- stability in air (listed as FB1): unstable in air and converts to form FB3; also recorded: converted completely to crystal form FB3

Structure (SMILES): CC(C)c1cc(C(=O)N2Cc3ccc(CN4CCN(C)CC4)cc3C2)c(O)cc1O [Form FB2, (2,4-dihydroxy-5-isopropyl-phenyl)-[5-(4-methyl-piperazin-1-ylmethyl)-1,3-dihydro-isoindol-2-yl]-methanone]
- stability in air (listed as FB2): unstable in air and converts to form FB3; also recorded: changed to crystal form FB3

Structure (SMILES): CC(C)c1cc(C(=O)N2Cc3ccc(CN4CCN(C)CC4)cc3C2)c(O)cc1O [Form FB3, (2,4-dihydroxy-5-isopropyl-phenyl)-[5-(4-methyl-piperazin-1-ylmethyl)-1,3-dihydro-isoindol-2-yl]-methanone]
- stability at 40° C. and 75% RH: stable in air at 40 °C and in 75% relative humidity for at least one month; also recorded: stable in air and at 40 °C and 75% RH for at least one month
- stability in air (listed as FB3): stable in air

Structure (SMILES): CC(C)c1cc(C(=O)N2Cc3ccc(CN4CCN(C)CC4)cc3C2)c(O)cc1O [Form FB4, (2,4-dihydroxy-5-isopropyl-phenyl)-[5-(4-methyl-piperazin-1-ylmethyl)-1,3-dihydro-isoindol-2-yl]-methanone]
- stability of the crystalline form (stable / unstable form): stable
- stability in air (listed as FB4): stable in air

Structure (SMILES): CC(C)c1cc(C(=O)N2Cc3ccc(CN4CCN(C)CC4)cc3C2)c(O)cc1O [Form FB5, (2,4-dihydroxy-5-isopropyl-phenyl)-[5-(4-methyl-piperazin-1-ylmethyl)-1,3-dihydro-isoindol-2-yl]-methanone]
- stability in air (listed as FB5): unstable in air; also recorded: transforms to FB6 in air; also recorded: conversion to form FB6

Structure (SMILES): CC(C)c1cc(C(=O)N2Cc3ccc(CN4CCN(C)CC4)cc3C2)c(O)cc1O [Form FB6, (2,4-dihydroxy-5-isopropyl-phenyl)-[5-(4-methyl-piperazin-1-ylmethyl)-1,3-dihydro-isoindol-2-yl]-methanone]
- stability in air (listed as FB6): stable in air; also recorded: stable on air

Structure (SMILES): CC(C)c1cc(C(=O)N2Cc3ccc(CN4CCN(C)CC4)cc3C2)c(O)cc1O.Cl [Form FH2, (2,4-dihydroxy-5-isopropyl-phenyl)-[5-(4-methyl-piperazin-1-ylmethyl)-1,3-dihydro-isoindol-2-yl]-methanone hydrochloride salt]
- stability in air (listed as FH2, hydrochloride salt): unstable in air; also recorded: transforms on air into form FH3; also recorded: conversion to form FH3

Structure (SMILES): CC(C)c1cc(C(=O)N2Cc3ccc(CN4CCN(C)CC4)cc3C2)c(O)cc1O.Cl [Form FH3, (2,4-dihydroxy-5-isopropyl-phenyl)-[5-(4-methyl-piperazin-1-ylmethyl)-1,3-dihydro-isoindol-2-yl]-methanone hydrochloride salt]
- stability at 40° C. and 75% RH: stable in air and at 40 °C and 75% RH for at least one month
- stability in air (listed as FH3, hydrochloride salt): stable in air

Structure (SMILES): CC(C)c1cc(C(=O)N2Cc3ccc(CN4CCN(C)CC4)cc3C2)c(O)cc1O.Cl [Form FH4, (2,4-dihydroxy-5-isopropyl-phenyl)-[5-(4-methyl-piperazin-1-ylmethyl)-1,3-dihydro-isoindol-2-yl]-methanone hydrochloride salt]
- stability in air (listed as FH4, hydrochloride salt): unstable and disintegrates in air

Structure (SMILES): CC(C)c1cc(C(=O)N2Cc3ccc(CN4CCN(C)CC4)cc3C2)c(O)cc1O.Cl [Form FH5, (2,4-dihydroxy-5-isopropyl-phenyl)-[5-(4-methyl-piperazin-1-ylmethyl)-1,3-dihydro-isoindol-2-yl]-methanone hydrochloride salt]
- stability in air (listed as FH5, hydrochloride salt): unstable and dissolves in moist air

Structure (SMILES): CC(C)c1cc(C(=O)N2Cc3ccc(CN4CCN(C)CC4)cc3C2)c(O)cc1O.C[C@H](O)C(=O)O [Form FL1, (2,4-dihydroxy-5-isopropyl-phenyl)-[5-(4-methyl-piperazin-1-ylmethyl)-1,3-dihydro-isoindol-2-yl]-methanone L-lactate salt]
- stability at 40° C. and 75% RH: stable in air and at 40 °C and 75% RH for at least one month
- stability in air (listed as FL): stable in air
- stability of the crystalline form (stable / unstable form) (listed as FL1): stable forms

Structure (SMILES): CC(C)c1cc(C(=O)N2Cc3ccc(CN4CCN(C)CC4)cc3C2)c(O)cc1O.C[C@H](O)C(=O)O [Form FL2, (2,4-dihydroxy-5-isopropyl-phenyl)-[5-(4-methyl-piperazin-1-ylmethyl)-1,3-dihydro-isoindol-2-yl]-methanone L-lactate salt]
- stability in air (listed as FL2): stable in air
- stability of the crystalline form (stable / unstable form) (listed as FL2): stable forms

Structure (SMILES): CC(C)c1cc(C(=O)N2Cc3ccc(CN4CCN(C)CC4)cc3C2)c(O)cc1O.C[C@H](O)C(=O)O [Form FL3, (2,4-dihydroxy-5-isopropyl-phenyl)-[5-(4-methyl-piperazin-1-ylmethyl)-1,3-dihydro-isoindol-2-yl]-methanone L-lactate salt]
- stability in air (listed as FL3): transforms in air into form FL1; also recorded: conversion to form FL1
- stability of the crystalline form (stable / unstable form) (listed as FL3): unstable form

Structure (SMILES): CC(C)c1cc(C(=O)N2Cc3ccc(CN4CCN(C)CC4)cc3C2)c(O)cc1O.O=S(=O)(O)O [Form FS1, (2,4-dihydroxy-5-isopropyl-phenyl)-[5-(4-methyl-piperazin-1-ylmethyl)-1,3-dihydro-isoindol-2-yl]-methanone sulphate salt]
- stability in air (listed as FS1, sulphate salt): unstable on air and transforms to form FS3
- stability of the crystalline form (stable / unstable form) (listed as FS1, sulphate salt): unstable forms

Structure (SMILES): CC(C)c1cc(C(=O)N2Cc3ccc(CN4CCN(C)CC4)cc3C2)c(O)cc1O.O=S(=O)(O)O [Form FS2, (2,4-dihydroxy-5-isopropyl-phenyl)-[5-(4-methyl-piperazin-1-ylmethyl)-1,3-dihydro-isoindol-2-yl]-methanone sulphate salt]
- stability at 40° C. and 75% RH (listed as FS2, sulphate salt): transforms to form FS4
- stability in air (listed as FS2, sulphate salt): unstable on air and transforms to form FS5
- stability of the crystalline form (stable / unstable form) (listed as FS2, sulphate salt): unstable forms

Structure (SMILES): CC(C)c1cc(C(=O)N2Cc3ccc(CN4CCN(C)CC4)cc3C2)c(O)cc1O.O=S(=O)(O)O [Form FS3, (2,4-dihydroxy-5-isopropyl-phenyl)-[5-(4-methyl-piperazin-1-ylmethyl)-1,3-dihydro-isoindol-2-yl]-methanone sulphate salt]
- stability of the crystalline form (stable / unstable form) (listed as FS3, sulphate salt): stable form

Structure (SMILES): CC(C)c1cc(C(=O)N2Cc3ccc(CN4CCN(C)CC4)cc3C2)c(O)cc1O.O=S(=O)(O)O [Form FS4, (2,4-dihydroxy-5-isopropyl-phenyl)-[5-(4-methyl-piperazin-1-ylmethyl)-1,3-dihydro-isoindol-2-yl]-methanone sulphate salt]
- stability in a dry environment (20° C., 11% RH): transformation of form FS4 in a dry environment
- stability of the crystalline form (stable / unstable form) (listed as FS4, sulphate salt): stable form

Structure (SMILES): CC(C)c1cc(C(=O)N2Cc3ccc(CN4CCN(C)CC4)cc3C2)c(O)cc1O.O=S(=O)(O)O [Form FS5, (2,4-dihydroxy-5-isopropyl-phenyl)-[5-(4-methyl-piperazin-1-ylmethyl)-1,3-dihydro-isoindol-2-yl]-methanone sulphate salt]
- stability of the crystalline form (stable / unstable form) (listed as FS5, sulphate salt): stable forms
- stability of the crystalline form (stable / unstable form) (listed as FS53, sulphate salt): stable form
